# Molecular target: T1, human IDO1 (Homo sapiens, UniProt P14902)
# T1 construct: expressed in transfected cells
# Experiment: IDO inhibition assay in HEK293 cells stably expressing human IDO1 (kynurenine production, Ehrlich reagent, absorbance 490 nm)
# Format: cell-based
# Conditions: 20 hours incubation with compound, 500 nM reference standard = 100% inhibition, read-out: IDO1 HEK Human IC50
# Outline: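 Kynurenine output of stably IDO1-transfected HEK293 cells was measured by absorbance at 490 nm after mixing supernatant with 0.2% Ehrlich reagent, following TCA stop (0.2% final, 50° C., 30 min). Cells were incubated 20 hours with compound. Inhibition was scaled between DMSO and 500 nM reference standard.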
# T1 sequence (P14902 whole entry): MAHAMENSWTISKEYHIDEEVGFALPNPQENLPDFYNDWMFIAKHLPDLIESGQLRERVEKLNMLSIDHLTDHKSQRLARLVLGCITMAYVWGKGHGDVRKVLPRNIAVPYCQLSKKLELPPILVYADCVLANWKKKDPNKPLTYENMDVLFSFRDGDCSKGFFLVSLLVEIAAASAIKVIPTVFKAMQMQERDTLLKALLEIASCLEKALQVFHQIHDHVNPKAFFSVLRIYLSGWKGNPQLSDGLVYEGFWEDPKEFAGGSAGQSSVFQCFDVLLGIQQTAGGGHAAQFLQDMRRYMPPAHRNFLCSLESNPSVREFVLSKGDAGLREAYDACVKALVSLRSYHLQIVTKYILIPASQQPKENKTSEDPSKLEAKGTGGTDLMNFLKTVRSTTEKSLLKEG
row,IC50,Structure (SMILES)
1,249 nM,"CCCN(Cc1ccccc1)c1cc(NC(=O)Cc2cn(C)c3ccccc23)cc(-c2ccccc2-c2nn[nH]n2)n1 [Example 221, N-(2-(2-(2H-tetrazol-5-yl)phenyl)-6-(benzyl(propyl)amino)pyridin-4-yl)-2-(1-methyl-1H-indol-3-yl)acetamide]"
2,3430 nM,"CCCN(Cc1ccccc1)c1cc(NC(=O)Cn2ccnc2)cc(-c2ccccc2-c2nn[nH]n2)n1 [Example 222, N-(2-(2-(2H-tetrazol-5-yl)phenyl)-6-(benzyl(propyl)amino)pyridin-4-yl)-2-(1H-imidazol-1-yl)acetamide]"
3,964 nM,"CCCN(Cc1ccccc1)c1cc(NC(=O)C2(c3ccccc3)CC2)cc(-c2ccccc2-c2nn[nH]n2)n1 [Example 223, N-(2-(2-(2H-tetrazol-5-yl)phenyl)-6-(benzyl(propyl)amino)pyridin-4-yl)-1-phenylcyclopropanecarboxamide]"
4,3000 nM,"CCCN(Cc1ccccc1)c1cc(NC(=O)C2(c3cccc(F)c3)CC2)cc(-c2ccccc2-c2nn[nH]n2)n1 [Example 224, N-(2-(2-(2H-tetrazol-5-yl)phenyl)-6-(benzyl(propyl)amino)pyridin-4-yl)-1-(3-fluorophenyl)cyclopropanecarboxamide]"
5,364 nM,"CCCN(Cc1ccccc1)c1cc(NC(=O)Cc2ccccc2)cc(-c2ccccc2-c2nn[nH]n2)n1 [Example 225, N-(2-(2-(2H-tetrazol-5-yl)phenyl)-6-(benzyl(propyl)amino)pyridin-4-yl)-2-phenylacetamide]"
6,3350 nM,"CCCN(Cc1ccccc1)c1cc(NC(=O)Cc2ccc(C#N)cc2)cc(-c2ccccc2-c2nn[nH]n2)n1 [Example 227, N-(2-(2-(2H-tetrazol-5-yl)phenyl)-6-(benzyl(propyl)amino)pyridin-4-yl)-2-(4-cyanophenyl)acetamide]"
7,669 nM,"CC(C)CN(Cc1ccccc1)c1cc(NC(=O)Cc2ccc(F)c(F)c2)cc(-c2ccccc2-c2nnn[nH]2)n1 [Example 228, N-(2-(2-(1H-tetrazol-5-yl)phenyl)-6-(benzyl(isobutyl)amino)pyridin-4-yl)-2-(3,4-difluorophenyl)acetamide]"
8,675 nM,"Cc1cc(CC(=O)Nc2cc(-c3ccccc3-c3nnn[nH]3)nc(N(Cc3ccccc3)CC(C)C)c2)on1 [Example 231, N-(2-(2-(1H-tetrazol-5-yl)phenyl)-6-(benzyl(isobutyl)amino)pyridin-4-yl)-2-(3-methylisoxazol-5-yl)acetamide]"
9,400 nM,"CC(C)CN(Cc1ccccc1)c1cc(NC(=O)Cc2ccc(OC(F)(F)F)cc2)cc(-c2ccccc2-c2nnn[nH]2)n1 [Example 235, N-(2-(2-(1H-tetrazol-5-yl)phenyl)-6-(benzyl(isobutyl)amino)pyridin-4-yl)-2-(4-(trifluoromethoxy)phenyl)acetamide]"
10,11.9 nM,"Cc1ccc(NC(=O)Nc2cc(-c3ccccc3-c3nnn[nH]3)nc(N(Cc3ccccc3)CC(C)C)c2)cc1 [Example 240, 1-(2-(2-(1H-tetrazol-5-yl)phenyl)-6-(benzyl(isobutyl)amino)pyridin-4-yl)-3-(p-tolyl)urea]"
11,980 nM,CCCN(c1cc(NC(=O)Nc2ccc(C)cc2)cc(-c2cc(F)ccc2C(=O)O)n1)C1CCCCC1 [Example 256]
12,411 nM,"CCCN(c1cc(NC(=O)Nc2ccc(C)cc2)cc(-c2ccccc2-c2nnn[nH]2)n1)C1CCCCC1 [Example 258, 1-(2-(2-(1H-tetrazol-5-yl)phenyl)-6-(cyclohexyl(propyl)amino)pyridin-4-yl)-3-(p-tolyl)urea]"
13,1640 nM,"CCCN(Cc1ccccc1)c1cc(NC(=O)Nc2ccccc2F)cc(-c2cc(F)ccc2C(=O)O)n1 [Example 261, 2-(6-(benzyl(propyl)amino)-4-(3-(2-fluorophenyl)ureido)pyridin-2-yl)-4-fluorobenzoic acid]"
14,105 nM,"CCCN(Cc1ccccc1)c1cc(NC(=O)Nc2ccccc2F)cc(-c2ccccc2-c2nnn[nH]2)n1 [Example 262, 1-(2-(2-(1H-tetrazol-5-yl)phenyl)-6-(benzyl(propyl)amino)pyridin-4-yl)-3-(2-fluorophenyl)urea]"

# Second part, the compound before the results:
row,Structure (SMILES),IC50
1,"CCCN(Cc1ccccc1)c1cc(NC(=O)Cc2cccc(Br)c2)cc(-c2ccccc2-c2nn[nH]n2)n1 [Example 217, N-(2-(2-(2H-tetrazol-5-yl)phenyl)-6-(benzyl(propyl)amino)pyridin-4-yl)-2-(3-bromophenyl)acetamide]",239 nM
2,"CCCN(Cc1ccccc1)c1cc(NC(=O)CC2CCCC2)cc(-c2ccccc2-c2nn[nH]n2)n1 [Example 218, N-(2-(2-(2H-tetrazol-5-yl)phenyl)-6-(benzyl(propyl)amino)pyridin-4-yl)-2-cyclopentylacetamide]",1970 nM
3,CCCN(Cc1ccccc1)c1cc(NC(=O)Cc2cccc(OC(F)(F)F)c2)cc(-c2ccccc2-c2nn[nH]n2)n1 [Example 219],59.8 nM
4,"CCCN(Cc1ccccc1)c1cc(NC(=O)Cc2ccc(C(C)C)cc2)cc(-c2ccccc2-c2nn[nH]n2)n1 [Example 220, N-(2-(2-(2H-tetrazol-5-yl)phenyl)-6-(benzyl(propyl)amino)pyridin-4-yl)-2-(4-isopropylphenyl)acetamide]",52.6 nM
5,"CCCN(Cc1ccccc1)c1cc(NC(=O)Cc2cccnc2)cc(-c2ccccc2-c2nn[nH]n2)n1 [Example 226, N-(2-(2-(2H-tetrazol-5-yl)phenyl)-6-(benzyl(propyl)amino)pyridin-4-yl)-2-(pyridin-3-yl)acetamide]",3360 nM
6,"CC(C)CN(Cc1ccccc1)c1cc(NC(=O)Cc2ccc(F)cc2F)cc(-c2ccccc2-c2nnn[nH]2)n1 [Example 229, N-(2-(2-(1H-tetrazol-5-yl)phenyl)-6-(benzyl(isobutyl)amino)pyridin-4-yl)-2-(2,4-difluorophenyl)acetamide]",188 nM
7,"CC(C)CN(Cc1ccccc1)c1cc(NC(=O)Cc2ccc(C(C)C)cc2)cc(-c2ccccc2-c2nnn[nH]2)n1 [Example 230, N-(2-(2-(1H-tetrazol-5-yl)phenyl)-6-(benzyl(isobutyl)amino)pyridin-4-yl)-2-(4-isopropylphenyl)acetamide]",139 nM
8,"CC(C)CN(Cc1ccccc1)c1cc(NC(=O)Cc2ccc(F)c(Cl)c2)cc(-c2ccccc2-c2nnn[nH]2)n1 [Example 233, N-(2-(2-(1H-tetrazol-5-yl)phenyl)-6-(benzyl(isobutyl)amino)pyridin-4-yl)-2-(3-chloro-4-fluorophenyl)acetamide]",961 nM
9,"CC(C)CN(Cc1ccccc1)c1cc(NC(=O)c2ccc(F)c(F)c2)cc(-c2ccccc2-c2nnn[nH]2)n1 [Example 236, N-(2-(2-(1H-tetrazol-5-yl)phenyl)-6-difluorobenzamide (benzyl(isobutyl)amino)pyridin-4-yl)-3,4-]",687 nM
10,"CC(C)CN(Cc1ccccc1)c1cc(NC(=O)Nc2ccc(F)cc2F)cc(-c2ccccc2-c2nnn[nH]2)n1 [Example 237, 1-(2-(2-(1H-tetrazol-5-yl)phenyl)-6-(benzyl(isobutyl)amino)pyridin-4-yl)-3-(2,4-difluorophenyl)urea]",131 nM
11,"CC(C)CN(Cc1ccccc1)c1cc(NC(=O)Nc2ccc(Cl)cc2Cl)cc(-c2ccccc2-c2nnn[nH]2)n1 [Example 238, 1-(2-(2-(1H-tetrazol-5-yl)phenyl)-6-(benzyl(isobutyl)amino)pyridin-4-yl)-3-(2,4-dichlorophenyl)urea]",26.3 nM
12,"CC(C)CN(Cc1ccccc1)c1cc(NC(=O)Nc2ccc(OC(F)(F)F)cc2)cc(-c2ccccc2-c2nnn[nH]2)n1 [Example 239, 1-(2-(2-(1H-tetrazol-5-yl)phenyl)-6-(benzyl(isobutyl)amino)pyridin-4-yl)-3-(4-(trifluoromethoxy)phenyl)urea]",566 nM
13,"CCC(CC(=O)O)c1cc(Nc2ccc(Cl)cc2)cc(N(Cc2ccccc2)C(C)C)n1 (centres unmarked) [Example 241, 3-(6-(benzyl(isopropyl)amino)-4-((4-chlorophenyl)amino)pyridin-2-yl)pentanoic acid]",21.3 nM
14,"CCC(CC(=O)O)c1cc(Nc2ccc3nc(C)sc3c2)cc(N(Cc2ccccc2)C(C)C)n1 (centres unmarked) [Example 242, 3-(6-(benzyl(isopropyl)amino)-4-((2-methylbenzo[d]thiazol-6-yl)amino)pyridin-2-yl)pentanoic acid]",971 nM
15,"CC(C)CN(CC(C)C)c1cc(NC(=O)Nc2ccccc2F)cc(-c2cc(F)ccc2C(=O)O)n1 [Example 251, 2-(6-(diisobutylamino)-4-(3-(2-fluorophenyl)ureido)pyridin-2-yl)-4-fluorobenzoic acid]",2000 nM
16,"CC(C)CN(CC(C)C)c1cc(NC(=O)Nc2ccccc2F)cc(-c2ccccc2C(=O)O)n1 [Example 252, 2-(6-(diisobutylamino)-4-(3-(2-fluorophenyl)ureido)pyridin-2-yl)benzoic acid]",972 nM
17,"CC(C)CN(CC(C)C)c1cc(NC(=O)Nc2ccccc2F)cc(-c2ccccc2-c2nnn[nH]2)n1 [Example 253, 1-(2-(2-(1H-tetrazol-5-yl)phenyl)-6-(diisobutylamino)pyridin-4-yl)-3-(2-fluorophenyl)urea]",972 nM
18,"Cc1ccc(NC(=O)Nc2cc(-c3ccccc3C(=O)O)nc(N(CC(C)C)CC(C)C)c2)cc1 [Example 254, 2-(6-(diisobutylamino)-4-(3-(p-tolyl)ureido)pyridin-2-yl)benzoic acid]",1080 nM
19,"CCCN(c1cc(NC(=O)Nc2ccc(C)cc2)cc(-c2ccccc2C(=O)O)n1)C1CCCCC1 [Example 257, 2-(6-(cyclohexyl(propyl)amino)-4-(3-(p-tolyl)ureido)pyridin-2-yl)benzoic acid]",1890 nM
20,"CCCN(Cc1ccccc1)c1cc(NC(=O)Nc2ccc(C)cc2)cc(-c2ccccc2-c2nnn[nH]2)n1 [Example 260, 1-(2-(2-(1H-tetrazol-5-yl)phenyl)-6-(benzyl(propyl)amino)pyridin-4-yl)-3-(p-tolyl)urea]",9.9 nM
21,"CCCN(Cc1ccccc1)c1cc(NC(=O)Nc2cc(C)cc(C)c2)cc(-c2ccccc2-c2nnn[nH]2)n1 [Example 263, 1-(2-(2-(1H-tetrazol-5-yl)phenyl)-6-(benzyl(propyl)amino)pyridin-4-yl)-3-(3,5-dimethylphenyl)urea]",145 nM
